We go through twelve compounds from patent US20260078130A1, “NAMPT MODULATORS, PREPARATIONS, AND USES THEREOF” (SIRONAX LTD., priority 2022, published 2026).

Where two headings read alike, the source gives them in different places.

This experiment deals with T1, human enzyme NAMPT (full length) (Homo sapiens, UniProt P43490).
T1 construct: human enzyme NAMPT (full length)
Nature of the experiment: NMN fluorescence biochemical assay (stimulation of NMN synthesis by NAMPT). Particulars: for EC50: concentration giving half-maximal activation, read-out: Enzymatic EC50; for Enzymatic Emax: fold change of maximal activation compared to DMSO. The protocol: Certain compounds described herein were assayed for their ability to stimulate the synthesis of nicotinamide mononucleotide (NMN) by human enzyme NAMPT (full length). The enzymatic assay was performed in a 384-well plate using a TMD buffer (50 mM Tris-HCl, 10 mM MgCl2, 2 mM DTT, pH 7.5). Purified NAMPT (100 nM) was pre-incubated with 0.2 μL. DMSO solution of the test compound (with a series of concentrations) in 10 μL TMD buffer for 15 min at 37° C. The reaction was initiated by adding 10 μL solution of NAM (50 μM), PRPP (100 μM), and ATP (4 mM) in TMD buffer. After 1 h of incubation at 37 T, an aliquot (20 μL) of the NMN-containing sample was sequentially mixed with 5 μL of 20% acetophenone (in DMSO) and 5 μL of 2M KOH. The mixture was placed on ice for 10 min. Next, 22.5 μL of 100% formic acid was added to each sample, vortexed, and then incubated at 37° C. for 20 min. Fluorescence (Ex/Em=382/445 nm) was measured using an Envision plate reader. The potency measurements for the test compounds were quantified and represented as EC50 (concentration of a compound that gives half-maximal activation) and Emax (fold change of a compound's maximal activation compared to DMSO).

[1] abbreviates: NMN synthesis by purified human NAMPT (100 nM).
Where [2] appears, read: NMN fluorescence assay, purified human NAMPT 100 nM.

T1 sequence (P43490 whole entry): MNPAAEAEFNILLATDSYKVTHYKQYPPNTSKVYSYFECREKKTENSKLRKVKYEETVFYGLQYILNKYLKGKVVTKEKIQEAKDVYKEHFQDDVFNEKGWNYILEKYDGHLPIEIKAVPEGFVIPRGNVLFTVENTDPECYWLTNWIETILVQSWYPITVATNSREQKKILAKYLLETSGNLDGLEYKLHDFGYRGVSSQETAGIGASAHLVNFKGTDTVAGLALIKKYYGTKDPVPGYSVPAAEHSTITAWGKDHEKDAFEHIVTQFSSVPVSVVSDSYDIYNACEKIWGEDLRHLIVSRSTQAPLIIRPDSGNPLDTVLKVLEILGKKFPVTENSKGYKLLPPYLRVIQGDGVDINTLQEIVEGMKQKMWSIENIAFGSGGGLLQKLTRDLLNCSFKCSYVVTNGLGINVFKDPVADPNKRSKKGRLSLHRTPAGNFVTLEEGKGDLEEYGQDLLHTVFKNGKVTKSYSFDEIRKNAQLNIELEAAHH

As for `N#Cc1cccc(F)c1C[C@@H]1c2ccccc2C(=O)N1Cc1ccc2[nH]c(=O)oc2c1` [Compound 171, (R)-3-fluoro-2-((3-oxo-2-((2-oxo-2,3-dihydrobenzo[d]oxazol-6-yl)methyl)isoindolin-1-yl)methyl)benzonitrile], the “Enzymatic Emax” value is recorded as “C (2≥C)”. In addition, under setting [1], the EC50 (in general, the concentration at which the effect is half-maximal) is no less than 5 µM.
In the same order, the values of `O=C1c2ccccc2C(Cc2ncccc2Br)N1Cc1ccc2c(c1)nnn2O` (stereo not drawn) [Compound 288, 3-((3-bromopyridin-2-yl)methyl)-2-((1-hydroxy-1H-benzo[d][1,2,3]triazol-5-yl)methyl) isoindolin-1-one] are “C (2≥C)” and no less than 5 µM.
For the compound `O=C1CC2(CN1)CC(CN1C(=O)c3ccccc3C1Cc1ncccc1Br)C2` (stereo not drawn) [Compound 424, 3-((3-bromopyridin-2-yl)methyl)-2-((7-oxo-6-azaspiro[3.4]octan-2-yl)methyl) isoindolin-1-one], the “Enzymatic Emax” value is given as “C (2≥C)”. Moreover, the EC50 under setting [2] is no less than 5 µM.
Take `Cn1ncc(Cl)c1CC1c2ccccc2C(=O)N1Cc1ccc2[nH]c(=O)oc2c1` (stereo not drawn) [Compound 251, 6-((1-((4-chloro-1-methyl-1H-pyrazol-5-yl)methyl)-3-oxoisoindolin-2-yl)methyl)benzo[d]oxazol-2(3H)-one]: the “Enzymatic Emax” value was “A (A>3)”. In addition, the EC50 under setting [1] is less than 0.5 µM.
For the compound `O=C1c2ccccc2C(Cc2ncccc2Br)N1CCNc1c[nH]nn1` (stereo not drawn) [Compound 456, 2-(2-((1H-1,2,3-triazol-4-yl)amino)ethyl)-3-((3-bromopyridin-2-yl)methyl)isoindolin-1-one], the “Enzymatic Emax” value was “C (2≥C)”. For the same compound, the concentration giving a half-maximal response (EC50) under setting [2] is no less than 5 µM.
In the same order, the values of `O=C1c2sc(Br)nc2CN1Cc1ccc(O)cc1` [Compound 447, 2-bromo-5-(4-hydroxybenzyl)-4,5-dihydro-6H-pyrrolo[3,4-d]thiazol-6-one] are “B (3≥B>2)” and no less than 5 µM.
Take `O=C1c2ccccc2C(Cc2cccc3ncoc23)N1Cc1ccc2[nH]c(=O)oc2c1` (stereo not drawn) [Compound 218, 6-((1-(benzo[d]oxazol-7-ylmethyl)-3-oxoisoindolin-2-yl)methyl)benzo[d]oxazol-2(3H)-one]: the “Enzymatic Emax” value is recorded as “A (A>3)”. The EC50 under setting [1] lay within 0.5 to 5 µM.
In the same order, the values of `N#Cc1cccc(CC2c3ccccc3C(=O)N2Cc2ccc3[nH]c(=O)oc3c2)n1` (stereo not drawn) [Compound 219, 6-((3-oxo-2-((2-oxo-2,3-dihydrobenzo[d]oxazol-6-yl)methyl)isoindolin-1-yl)methyl)picolinonitrile] are “B (3≥B>2)” and 0.5 to 5 µM.
Take `COc1ccc(CN2C(=O)c3ccccc3C2Cc2c(Cl)cnn2C)nc1` (stereo not drawn) [Compound 529, 3-((4-chloro-1-methyl-1H-pyrazol-5-yl)methyl)-2-((5-methoxypyridin-2-yl)methyl)isoindolin-1-one]: the “Enzymatic Emax” value was “C (2≥C)”. Besides, the EC50 under setting [2] fell in the range of 0.5 to 5 µM.
`Cn1ncc(Cl)c1CC1c2ccccc2C(=O)N1Cc1ccc(OC(F)F)cc1` (stereo not drawn) [Compound 528, 3-((4-chloro-1-methyl-1H-pyrazol-5-yl)methyl)-2-(4-(difluoromethoxy)benzyl)isoindolin-1-one]: the “Enzymatic Emax” value is “C (2≥C)”. The EC50 under setting [2] is no less than 5 µM.
In the same order, the values of `Cn1ncc(Cl)c1CC1c2ccccc2C(=O)N1[C@H]1C[C@H](c2c[nH]c(=O)o2)C1` (stereo partly drawn) [Compound 455, 5-((1r,3r)-3-(1-((4-chloro-1-methyl-1H-pyrazol-5-yl)methyl)-3-oxoisoindolin-2-yl)cyclobutyl)oxazol-2(3H)-one] are “C (2≥C)” and no less than 5 µM.
Consider `O=C1c2ccccc2C(CC2CCOCC2)N1Cc1ccc2[nH]c(=O)oc2c1` (stereo not drawn) [Compound 226, 6-((1-oxo-3-((tetrahydro-2H-pyran-4-yl)methyl)isoindolin-2-yl)methyl)benzo[d]oxazol-2(3H)-one], for which the “Enzymatic Emax” value is reported as “B (3≥B>2)”. For the same compound, the EC50 under setting [1] was no less than 5 µM.
